From PMC7311426, “An amphipathic peptide with antibiotic activity against multidrug-resistant Gram-negative bacteria” (Nature Communications, 2020)
In brackets after ≈: the same amount, converted by molar mass. Read-outs that look alike come from different tables or passages of the source.

Experiments:
[1] = test system: A. baumannii clinical isolates; assay: microbe, parasite or virus in culture
Method in brief: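 MIC90 from CLSI broth microdilution (M07-A9) in two clinical-isolate panels. US panel (331 isolates, 2010-2012): AA139 diluted in 0.01% acetic acid/0.1% BSA. Worldwide panel (445 isolates, 2011-2013, four regions): CAMHB, with 0.002% Tween 80 added for AA139 and polymyxin B.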

[2] = test system: P. aeruginosa; settings: P. aeruginosa ATCC 27853; quality control range printed beside broth microdilution MIC of parent strain; cited from earlier work
[3] = test system: K. pneumoniae; assay: microbe, parasite or virus in culture; settings: Klebsiella pneumoniae
Method in brief: (§1)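 MICs were scored by eye after 18-20 h static incubation at 37 °C, with bacteria at 5 × 10^5 CFU mL^−1 in MHB. Peptides were serially diluted 2-fold over 12 points, top 128 or 64 μg mL^−1. CAMHB (CLSI) and 1% agarose-MHB variants were also run, at least six replicates.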

[4] = test system: S. aureus; assay: microbe, parasite or virus in culture
Method in brief: as §1

[5] = test system: E. coli; assay: microbe, parasite or virus in culture; settings: Escherichia coli
Method in brief: as §1

[6] = test system: S. enterica Typhi; assay: microbe, parasite or virus in culture; settings: Salmonella enterica, ATCC14028 / TYPHI, read-out: BMD MIC
Method in brief: as §1

[7] = test system: A. baumannii; assay: microbe, parasite or virus in culture; settings: Acinetobacter baumannii, mode of 6 replicates
Method in brief: as §1

[8] = test system: P. aeruginosa; assay: microbe, parasite or virus in culture; settings: Pseudomonas aeruginosa
Method in brief: as §1

[9] = A. baumannii, worldwide isolates 2011-2013, n = 108

C[C@@H](O)[C@H]1C(=O)N2C(C(=O)O)=C(S[C@@H]3CN[C@H](C(=O)N(C)C)C3)[C@H](C)[C@H]12 [Meropenem, meropenem, reference compound]
Number of isolates with MIC 0.125 (MIC frequency distribution) [1]: 4
MIC50 [1, 9]: > 16 mg/L
MIC90 [1, 9]: > 16 mg/L
Number of isolates with MIC 0.03 (MIC frequency distribution) ([1]; A. baumannii, worldwide isolates 2011-2013, n = 108, count of isolates at MIC 0.03): 0
Number of isolates with MIC 0.06 (MIC frequency distribution) ([1]; A. baumannii, worldwide isolates 2011-2013, n = 108, count of isolates at MIC 0.06): 1
Number of isolates with MIC 0.25 (MIC frequency distribution) ([1]; A. baumannii, worldwide isolates 2011-2013, n = 108, count of isolates at MIC 0.25): 10
Number of isolates with MIC 0.5 (MIC frequency distribution) ([1]; A. baumannii, worldwide isolates 2011-2013, n = 108, count of isolates at MIC 0.5): 2
Number of isolates with MIC 1 (MIC frequency distribution) ([1]; A. baumannii, worldwide isolates 2011-2013, n = 108, count of isolates at MIC 1): 1
Number of isolates with MIC 2 (MIC frequency distribution) ([1]; A. baumannii, worldwide isolates 2011-2013, n = 108, count of isolates at MIC 2): 3
Number of isolates with MIC 4 (MIC frequency distribution) ([1]; A. baumannii, worldwide isolates 2011-2013, n = 108, count of isolates at MIC 4): 2
Number of isolates with MIC 8 (MIC frequency distribution) ([1]; A. baumannii, worldwide isolates 2011-2013, n = 108, count of isolates at MIC 8): 2
Number of isolates with MIC 16 (MIC frequency distribution) ([1]; A. baumannii, worldwide isolates 2011-2013, n = 108, count of isolates at MIC 16): 1
Number of isolates with MIC 32 (MIC frequency distribution) ([1]; A. baumannii, worldwide isolates 2011-2013, n = 108, count of isolates at MIC 32): 0
Number of isolates with MIC 64 (MIC frequency distribution) ([1]; A. baumannii, worldwide isolates 2011-2013, n = 108, count of isolates at MIC 64): 0
Number of isolates with MIC 128 (MIC frequency distribution) ([1]; A. baumannii, worldwide isolates 2011-2013, n = 108, count of isolates at MIC 128): 0
Number of isolates with MIC >16 (MIC frequency distribution) ([1]; A. baumannii, worldwide isolates 2011-2013, n = 108, count of isolates at MIC >16): 82
Number of isolates with MIC >32 (MIC frequency distribution) ([1]; A. baumannii, worldwide isolates 2011-2013, n = 108, count of isolates at MIC >32): 0
Number of isolates with MIC >128 (MIC frequency distribution) ([1]; A. baumannii, worldwide isolates 2011-2013, n = 108, count of isolates at MIC >128): 0
Number of isolates with MIC ≤0.015 (MIC frequency distribution) ([1]; A. baumannii, worldwide isolates 2011-2013, n = 108, count of isolates at MIC ≤0.015): 0
MIC90 ([1]; Acinetobacter baumannii): > 16 mg/L
MIC90 ([1]; US isolates 2010–2012, A. baumannii MDR, n = 19): >16 mg/L
MIC90 ([1]; US isolates 2010–2012, A. baumannii XDR, n = 31): >16 mg/L
MIC Quality control range [2]: 0.12 to 1 mg/L
MIC ([3]; ATCC13883, read-out: BMD MIC, K. pneumoniae ATCC 13883 type strain (polymyxin/colistin heteroresistant), MHB, mode of 6 replicates): ≤ 0.25 mg/L
MIC ([3]; ATCC700603, read-out: BMD MIC, K. pneumoniae ATCC 700603 (K6), MDR, OXA-2/SHV-18, CAMHB, mode of 6 replicates): 0.06 mg/L (≈ 0.156 µM)
MIC ([3]; ATCC700603, read-out: BMD MIC, K. pneumoniae ATCC 700603 (K6), MDR, OXA-2/SHV-18, MHB, mode of 6 replicates): ≤ 0.25 mg/L
MIC ([3]; BAA2146, read-out: BMD MIC, K. pneumoniae BAA-2146, MDR, ESBL, NDM-1 pos, MHB, mode of 6 replicates): > 32 mg/L
MIC ([3]; read-out: BMD MIC, K. pneumoniae Greece CI 8_GR_13, XDR, KPC-2, PmxR, MHB, mode of 6 replicates): > 32 mg/L
MIC ([3]; read-out: MIC, broth microdilution, K. pneumoniae 3010 spontaneous mutant, AA139 selection 4X, plate 1, colony 1, drug-free passage 1): 0.03 mg/L (≈ 0.0782 µM)
MIC ([3]; read-out: MIC, broth microdilution, K. pneumoniae 3010 spontaneous mutant, AA139 selection 4X, plate 1, colony 1, drug-free passage 5): 0.015 mg/L (≈ 0.0391 µM)
MIC ([3]; read-out: MIC, broth microdilution, K. pneumoniae 3010 spontaneous mutant, AA139 selection 8X, plate 1, colony 1, drug-free passage 1): 0.03 mg/L (≈ 0.0782 µM)
MIC ([3]; read-out: MIC, broth microdilution, K. pneumoniae 3010 spontaneous mutant, AA139 selection 8X, plate 1, colony 1, drug-free passage 5): 0.03 mg/L (≈ 0.0782 µM)
MIC ([3]; read-out: MIC, broth microdilution, K. pneumoniae ST258 spontaneous mutant, AA139 selection 4X, plate 1, colony 1, drug-free passage 1): > 4 mg/L
MIC ([3]; read-out: MIC, broth microdilution, K. pneumoniae ST258 spontaneous mutant, AA139 selection 4X, plate 1, colony 1, drug-free passage 5): > 4 mg/L
BMD MIC ([4]; S. aureus ATCC 25923 MSSA, CAMHB, mode of 6 replicates): 0.06 mg/L
MIC ([4]; Staphylococcus aureus, ATCC25923 / MSSA, read-out: BMD MIC): 0.06 mg/L (≈ 0.156 µM)
MIC ([5]; ATCC25922, read-out: BMD MIC, E. coli ATCC 25922 FDA control strain, CAMHB, mode of 6 replicates): ≤ 0.06 mg/L
MIC ([5]; ATCC25922, read-out: BMD MIC, E. coli ATCC 25922 FDA control strain, MHB, mode of 6 independent biological replicates): 0.015 mg/L (≈ 0.0391 µM)
MIC ([5]; ATCC700926 / MG1655, read-out: BMD MIC): ≤ 0.03 mg/L
MIC ([5]; ATCC700928, read-out: BMD MIC, E. coli ATCC 700928 CFT073 UPEC, CAMHB, mode of 6 replicates): ≤ 0.25 mg/L
MIC ([5]; read-out: BMD MIC): ≤ 0.25 mg/L
MIC ([5]; read-out: MIC against E. coli AID#172 MDR clinical isolate, BMD): 0.125 mg/L (≈ 0.326 µM)
MIC ([5]; read-out: MIC against ESBL producing E. coli DSA 443, BMD): 0.032 mg/L (≈ 0.0834 µM)
MIC ([5]; read-out: MIC, broth microdilution, E. coli AUD172 parent strain not exposed to drug): 0.015 mg/L (≈ 0.0391 µM)
MIC ([5]; read-out: MIC, broth microdilution, E. coli AUD172 spontaneous mutant, AA139 selection 4X, plate 2, colony 2, drug-free passage 1): 0.015 mg/L (≈ 0.0391 µM)
MIC ([5]; read-out: MIC, broth microdilution, E. coli AUD172 spontaneous mutant, AA139 selection 4X, plate 2, colony 2, drug-free passage 5): 0.03 mg/L (≈ 0.0782 µM)
MIC [6]: 0.125 mg/L (≈ 0.326 µM)
MIC ([7]; ATCC19636, read-out: BMD MIC, A. baumannii ATCC 19636 type strain, CAMHB): 1 mg/L (≈ 2.61 µM)
MIC ([7]; ATCC19636, read-out: BMD MIC, A. baumannii ATCC 19636 type strain, MHB): 0.5 mg/L (≈ 1.3 µM)
MIC ([7]; read-out: BMD MIC, A. baumannii Greece CI, XDR, PmxR, MHB): > 16 mg/L
MIC ([8]; ATCC27853, read-out: BMD MIC, P. aeruginosa ATCC 27853 control strain, CAMHB, mode of 6 replicates): ≤ 0.25 mg/L
MIC ([8]; ATCC27853, read-out: MIC, broth microdilution, P. aeruginosa ATCC 27853 spontaneous mutant, AA139 selection 4X, plate 1, colony 1, drug-free passage 1): 0.25 mg/L (≈ 0.652 µM)
MIC ([8]; ATCC27853, read-out: MIC, broth microdilution, P. aeruginosa ATCC 27853 spontaneous mutant, AA139 selection 4X, plate 1, colony 1, drug-free passage 5): 0.5 mg/L (≈ 1.3 µM)
MIC ([8]; ATCC27853, read-out: MIC, broth microdilution, P. aeruginosa ATCC 27853 spontaneous mutant, AA139 selection 4X, plate 1, colony 2, drug-free passage 1): 0.5 mg/L (≈ 1.3 µM)
MIC ([8]; ATCC27853, read-out: MIC, broth microdilution, P. aeruginosa ATCC 27853 spontaneous mutant, AA139 selection 4X, plate 1, colony 2, drug-free passage 5): 0.25 mg/L (≈ 0.652 µM)
MIC ([8]; ATCC27853, read-out: MIC, broth microdilution, P. aeruginosa ATCC 27853 spontaneous mutant, AA139 selection 4X, plate 1, colony 3, drug-free passage 1): 1 mg/L (≈ 2.61 µM)
MIC ([8]; ATCC27853, read-out: MIC, broth microdilution, P. aeruginosa ATCC 27853 spontaneous mutant, AA139 selection 4X, plate 1, colony 3, drug-free passage 5): 0.5 mg/L (≈ 1.3 µM)
MIC ([8]; ATCC27853, read-out: MIC, broth microdilution, P. aeruginosa ATCC 27853 spontaneous mutant, AA139 selection 4X, plate 1, colony 4, drug-free passage 1): 1 mg/L (≈ 2.61 µM)
MIC ([8]; ATCC27853, read-out: MIC, broth microdilution, P. aeruginosa ATCC 27853 spontaneous mutant, AA139 selection 4X, plate 1, colony 4, drug-free passage 5): 0.5 mg/L (≈ 1.3 µM)
MIC ([8]; ATCC27853, read-out: MIC, broth microdilution, P. aeruginosa ATCC 27853 spontaneous mutant, AA139 selection 4X, plate 1, colony 5, drug-free passage 1): 0.25 mg/L (≈ 0.652 µM)
MIC ([8]; ATCC27853, read-out: MIC, broth microdilution, P. aeruginosa ATCC 27853 spontaneous mutant, AA139 selection 4X, plate 1, colony 5, drug-free passage 5): 0.5 mg/L (≈ 1.3 µM)
